Structures are written as SMILES.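 Briefly, cells in 96-well plates were exposed to five compound concentrations for 48 h, and endpoints were estimated by linear interpolation. GI50 = concentration required for 50% inhibition of growth. TGI: total growth inhibition.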

These results are taken from PubChem BioAssay (NCI).

What all share (test): NCI-60 cell line screen, 48 h
Experiment [1] has as its system CCRF-CEM leukemia.
Experiment [2] deals with HCC-2998 colon.
Experiment [3] has as its system HOP-92 NSCLC.
The test system of experiment [4] is HT29 colon.
Experiment [5] concerns MOLT-4 leukemia.
Experiment [6] deals with OVCAR-4 ovarian.
Experiment [7] concerns OVCAR-5 ovarian.
For experiment [8], the system named is SK-MEL-2 melanoma.

`O=C1C[C@@H](c2ccccc2)NCCCCN(O)CCCN1`: the TGI in experiment [1], in experiment [2], in experiment [3], in experiment [4], in experiment [5] and in experiment [6] was more than 100 µM throughout. Also, the TGI in experiment [7] and in experiment [8] was more than 100 µM each time.

In the case of `N#Cc1cc2cc3c4c(c2oc1=O)CCCN4CCC3`, the TGI in experiment [1], in experiment [2], in experiment [3], in experiment [4], in experiment [5] and in experiment [6] was more than 100 µM each time. Further, the TGI in experiment [7] and in experiment [8] was more than 100 µM throughout.

With `O=C1C2C(C(=O)[N]1[Hg][c]1ccccc1)C1(Cl)C(Cl)=C(Cl)C2(Cl)C1(Cl)Cl` (stereo unspecified), the GI50 in experiment [1] was 0.365 µM; in experiment [2], 2.12 µM; in experiment [3] it was 1.87 µM; in experiment [4], 1.81 µM; in experiment [5], 1.88 µM; in experiment [6], 1.09 µM. The GI50 is 2.82 µM in experiment [7] and 1.49 µM in experiment [8]. Also, the TGI in experiment [1] worked out at 10.4 µM; in experiment [2], 4.1 µM; in experiment [3], 3.97 µM; in experiment [4], 4.25 µM; in experiment [5] it was 8.76 µM; in experiment [6], 4.15 µM. The TGI in experiment [7] was determined as 5.29 µM; in experiment [8], 3.15 µM.

In the case of `COC(=O)Nc1nc2c(OC)c(OC)c(OC)cc2[nH]1`, the GI50 was 25.4 µM in experiment [1]; 55.6 µM in experiment [2]; 20.9 µM in experiment [3]; 4.63 µM in experiment [4]; 67.2 µM in experiment [5]; 64.2 µM in experiment [6]. Besides, the GI50 in experiment [7] is 49.6 µM; in experiment [8], 15.1 µM. Besides, the TGI in experiment [1] was more than 100 µM; in experiment [2] it was more than 100 µM; in experiment [3] it was more than 91.4 µM; in experiment [4], more than 97.1 µM; in experiment [5] it was more than 100 µM; in experiment [6], more than 100 µM. In addition, the TGI in experiment [7] is more than 100 µM; in experiment [8], more than 91.6 µM.

For the molecule `O=C(Cc1ccccc1)Nc1nnc(CCSCCc2nnc(NC(=O)Cc3ccccc3)s2)s1`, the GI50 is more than 100 µM in experiment [1]; 89.8 µM in experiment [2]; 4.5 µM in experiment [3]; more than 100 µM in experiment [4]; 23.8 µM in experiment [5]; 3.96 µM in experiment [6]. The GI50 in experiment [7] was more than 100 µM; in experiment [8], 16.5 µM. Moreover, the TGI in experiment [1] is more than 100 µM; in experiment [2] it was more than 100 µM; in experiment [3], 25.8 µM; in experiment [4], more than 100 µM; in experiment [5], more than 100 µM; in experiment [6], 32.7 µM. Besides, the TGI in experiment [7] and in experiment [8] was more than 100 µM throughout.

Turning to `c1ccc(Cn2cc3c(c2)-c2oncc2CC3)cc1`, the GI50 is 0.348 µM in experiment [1]; 1.25 µM in experiment [2]; 7.64 µM in experiment [3]; 0.398 µM in experiment [4]; 0.394 µM in experiment [5]; 3.26 µM in experiment [6]. Moreover, the GI50 in experiment [7] is 2.3 µM; in experiment [8] it was 5.29 µM. Further, the TGI in experiment [2] is 4.76 µM; in experiment [3], more than 91.4 µM; in experiment [4], 13.6 µM; in experiment [6] it was more than 66.9 µM; in experiment [7] it was more than 92.4 µM; in experiment [8], 87.5 µM.

On to `Cc1cc[c-]cc1.Fc1c[c-]c(-c2ccccn2)c(F)c1.N#CCC[PH+](CCC#N)c1ccccc1.[Pt+2]`, for which the GI50 in experiment [1] is 3.49 µM; in experiment [2], 3.22 µM; in experiment [3], 2.14 µM; in experiment [4] it was 3.24 µM; in experiment [5], 2.79 µM; in experiment [6], 2.97 µM. Besides, the GI50 in experiment [7] was 3.79 µM; in experiment [8], 2.41 µM. Besides, the TGI in experiment [1] was more than 100 µM; in experiment [2], 10.5 µM; in experiment [3], 8.05 µM; in experiment [4], 17.8 µM; in experiment [5], more than 100 µM; in experiment [6], 24.5 µM. Moreover, the TGI stood at 19.6 µM in experiment [7] and 6.57 µM in experiment [8].

`CCN(CC)c1ccc(/C=C/C(=O)c2cccc(NS(C)(=O)=O)c2)cc1`: the GI50 in experiment [1] was 3.19 µM; in experiment [2], more than 100 µM; in experiment [3], 14 µM; in experiment [4], 3.15 µM; in experiment [5] it was 4.09 µM; in experiment [6], 6.27 µM. The GI50 in experiment [7] is 35 µM; in experiment [8] it was more than 100 µM. Also, the TGI in experiment [1] is 18.1 µM; in experiment [2], more than 100 µM; in experiment [3], 71.1 µM; in experiment [4], more than 100 µM; in experiment [5], more than 100 µM; in experiment [6], more than 100 µM. For the same molecule, the TGI in experiment [7] and in experiment [8] was more than 100 µM in each case.

Turning to `COc1cc(C(=O)/C=C/c2c(-c3ccc(F)cc3)nc3sccn23)cc(OC)c1OC`, the GI50 in experiment [1] was 2.68 µM; in experiment [2] it was 2.03 µM; in experiment [3], 1.7 µM; in experiment [4], 2.53 µM; in experiment [5], 2.16 µM; in experiment [6], 3.27 µM. Also, the values for the GI50 in experiment [7] and in experiment [8] were 1.85 µM and 5.59 µM, respectively. Further, the TGI in experiment [1] was more than 27.3 µM; in experiment [2], 3.99 µM; in experiment [4] it was 6.11 µM; in experiment [5], 6.35 µM; in experiment [6], 38.1 µM; in experiment [7] it was 4.79 µM. Besides, in experiment [8], the TGI is more than 27.9 µM.

In the case of `OC(COc1ccc(Cl)cc1Cl)CN1CCCC1` (stereo unspecified), the TGI was more than 100 µM in experiment [1]; more than 100 µM in experiment [2]; more than 100 µM in experiment [3]; 69.9 µM in experiment [4]; more than 100 µM in experiment [5]; more than 100 µM in experiment [6]. Also, the TGI in experiment [7] and in experiment [8] was more than 100 µM each time.

For the molecule `COc1cc(C/C=C/c2ccccc2)c(OC)cc1O`, the TGI in experiment [1] stood at 52.3 µM; in experiment [2] it was 37.4 µM; in experiment [3], 33 µM; in experiment [4], 37.8 µM; in experiment [5], 52.8 µM; in experiment [6], 51.3 µM. Further, the TGI in experiment [7] was 60.6 µM; in experiment [8] it was 52.3 µM.
